In US11780845B2 (Relay Therapeutics, Inc., priority 2019, dated 2023) one finds IC50 data, which are given here for 60 molecules.

SMILES strings stand for the structures.

The target of the assay is FGFR2 (Homo sapiens (Human), UniProt P21802). The assay can be described thus: FGFR2 Biochemical Caliper Assay. As to the method: Compounds of the present invention were also tested in a FGFR2 Biochemical Caliper Assay. Compounds were prepared in 10 mM DMSO solution and serially diluted into 11 concentrations by 3-fold dilution. […] 5 uL of ATP solution (100 uM) was added to start the reaction and the plate was incubated for 90 minutes, then 70 uL of stopping buffer (0.5M EDTA) was added to terminate the reaction. Each well was analyzed using EZ reader.
Sequence of FGFR2 (P21802 22-821): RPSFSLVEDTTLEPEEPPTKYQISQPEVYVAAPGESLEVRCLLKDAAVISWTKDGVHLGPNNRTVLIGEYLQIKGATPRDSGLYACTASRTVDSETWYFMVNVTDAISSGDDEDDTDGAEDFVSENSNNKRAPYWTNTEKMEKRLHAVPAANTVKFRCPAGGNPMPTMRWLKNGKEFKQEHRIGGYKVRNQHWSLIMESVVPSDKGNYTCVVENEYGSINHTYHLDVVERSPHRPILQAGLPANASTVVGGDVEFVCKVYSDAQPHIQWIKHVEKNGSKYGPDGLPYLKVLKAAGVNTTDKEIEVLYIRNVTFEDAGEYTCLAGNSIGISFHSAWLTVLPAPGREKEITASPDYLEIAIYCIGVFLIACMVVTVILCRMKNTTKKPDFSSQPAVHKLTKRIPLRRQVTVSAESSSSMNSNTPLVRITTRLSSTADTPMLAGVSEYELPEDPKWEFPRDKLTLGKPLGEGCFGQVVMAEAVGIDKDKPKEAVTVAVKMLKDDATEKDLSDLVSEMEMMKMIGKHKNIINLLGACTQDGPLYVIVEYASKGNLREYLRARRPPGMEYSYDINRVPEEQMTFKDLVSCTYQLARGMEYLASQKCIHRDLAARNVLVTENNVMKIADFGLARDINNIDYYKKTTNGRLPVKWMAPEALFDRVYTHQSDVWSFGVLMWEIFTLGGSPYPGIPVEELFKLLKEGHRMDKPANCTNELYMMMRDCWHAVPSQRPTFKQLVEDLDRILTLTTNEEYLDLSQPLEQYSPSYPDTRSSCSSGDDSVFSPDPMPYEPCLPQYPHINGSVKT
With `C=C(C)C(=O)Nc1ccc(-c2c(-c3ccc(C(=O)N4CCCC4)cc3)c3c(N)ncnc3n2C)c(CC)c1` [Example 517], the IC50 (as a rule, the concentration that inhibits the measured activity by half) fell in the range of 250 to 1000 nM.

In turn, `C=C(C)C(=O)Nc1ccc(-c2c(C3=CC[C@@H](C(=O)N4CC[C@@H](F)C4)CC3)c3c(N)ncnc3n2C)cc1` (single isomer, unassigned) [Example 591] gave an IC50 of 100 to 250 nM. `C=CC(=O)N1CCC(n2cc(-c3c(-c4ccc(Oc5ccccc5)c(OC)c4)c4c(N)ncnc4n3C)cn2)CC1` [Example 612] registered an IC50 of 100 to 250 nM. `C=C(C)C(=O)Nc1ccc(-c2c(-c3ccc(C(=O)N(C)CCO)cc3)c3c(N)ncnc3n2C)cc1` [Example 254] yielded an IC50 of 250 to 1000 nM.

`C=C(C)C(=O)Nc1ccc(-c2c(-c3ccc(C(=O)NCCCO)cc3)c3c(N)ncnc3n2C)cc1` [Example 336] had an IC50 of 100 to 250 nM. As for `C=C(C)C(=O)Nc1ccc(-c2c(-c3ccc4c(c3)CC(NC(C)=O)C4)c3c(N)ncnc3n2C)cc1` (stereo not drawn) [Example 204], the IC50 was 1000 to 100000 nM. To `C=CC(=O)Nc1ccc(-c2c(C3=CCNCC3)c3c(N)ncnc3n2C)cc1` [Example 75] belongs 250 to 1000 nM; to `C=C(C)C(=O)Nc1ccc(-c2c(C3=CC[C@H](C(=O)N4CCC[C@H]4C#N)CC3)c3c(N)ncnc3n2C)cc1` (single isomer, unassigned) [Example 574], 250 to 1000 nM; to `C=CC(=O)N[C@H]1C[C@@H](n2cc(-c3c(-c4ccc(Oc5ccccc5)cc4)c4c(N)ncnc4n3C)cn2)C1` [Example 606], below 100 nM. Consider `C=C(C)C(=O)Nc1ccc(-c2c(-c3ccc(C(=O)N(C)C4CCOC4)cc3)c3c(N)ncnc3n2C)cc1` (stereo not drawn) [Example 247], for which the IC50 fell in the range of 1000 to 100000 nM. Molecule `C=C(C)C(=O)Nc1ccc(-c2c([C@H]3CC[C@@H](C(=O)N4CCCC4)CC3)c3c(N)ncnc3n2C)cc1` [Example 577] had an IC50 of 1000 to 100000 nM.

On to `C=C(C)C(=O)Nc1ccc(-c2c(-c3ccc(CN(C)C(C)=O)cc3)c3c(N)ncnc3n2C)cc1` [Example 198], for which the IC50 was 1000 to 100000 nM. `C=CC(=O)Nc1ccc(-c2c(-c3ccc(Oc4ccc(C)nc4)c(OC)c3)c3c(N)ncnc3n2C)cc1` [Example 44] registered an IC50 below 100 nM. To `C=C(C)C(=O)Nc1ccc(-c2c(-c3ccc(Oc4ncc(CO)cn4)cc3)c3c(N)ncnc3n2C)cc1` [Example 64] belongs 1000 to 100000 nM. With `C=C(C)C(=O)Nc1ccc(-c2c(-c3ccc(-c4nccs4)cc3)c3c(N)ncnc3n2C)cc1` [Example 178], the IC50 lay within 250 to 1000 nM. Then `C=C(C)C(=O)Nc1ccc(-c2c(C3=CC[C@H](C(=O)N4CC5CCC(C5)C4)CC3)c3c(N)ncnc3n2C)cc1` [Example 420], with 1000 to 100000 nM.

`C=C(C)C(=O)Nc1ccc(-c2c(-c3ccc(C(=O)N(C)C[C@H]4CCOC4)cc3)c3c(N)ncnc3n2C)cc1` (single isomer, unassigned) [Example 472] showed an IC50 of 250 to 1000 nM. For `C=C(C)C(=O)Nc1ccc(-c2c(-c3ccc(C(=O)N4CCCC4)cc3)c3c(N)ncnc3n2C)c(CC)c1` [Example 516], the IC50 was below 100 nM. Molecule `C=CC(=O)Nc1ccc(-c2c(-c3ccc(Sc4ncccn4)c(OC)c3)c3c(N)ncnc3n2C)cc1` [Example 82] yielded an IC50 below 100 nM.

`C=C(C)C(=O)Nc1ccc(-c2c(-c3cc(OC)ncc3F)c3c(N)ncnc3n2C)cc1` [Example 139]: the IC50 lay in the range of 1000 to 100000 nM. To `Cn1c(-c2ccc(NC(=O)CC3=CCCC3)cc2)c(-c2ccc(C(=O)N3CCCC3)cc2)c2c(N)ncnc21` [Example 542] belongs 1000 to 100000 nM. Then `C=C(C)C(=O)Nc1ccc(-c2c(-c3ccc(CN4CC[C@@H](O)C4)cc3)c3c(N)ncnc3n2C)cc1` [Example 146], with 1000 to 100000 nM. In the case of `C=CC(=O)Nc1ccc(-c2c(-c3ccc(Oc4cc(C)ccn4)c(OC)c3)c3c(N)ncnc3n2C)cc1` [Example 34], the IC50 was below 100 nM.

Regarding `C=C(C)C(=O)Nc1ccc(-c2c(-c3ccc(C(=O)NCC4CC(O)C4)cc3)c3c(N)ncnc3n2C)cc1` (stereo not drawn) [Example 323], the IC50 is 100 to 250 nM. To `C=CC(=O)N1CCc2cc(-c3c(-c4ccc(Oc5cccc(C)n5)c(OC)c4)c4c(N)ncnc4n3C)ccc21` [Example 10] belongs below 100 nM. With `C=C(C)C(=O)Nc1ccc(-c2c(-c3ccc4c(c3)CCN4C(=O)NC)c3c(N)ncnc3n2C)cc1` [Example 232], the IC50 fell in the range of 250 to 1000 nM. To `C=C(C)C(=O)Nc1ccc(-c2c(-c3ccc(Oc4ccc(F)cn4)c(O)c3)c3c(N)ncnc3n2C)cc1` [Example 111] belongs 1000 to 100000 nM; to `C=C(C)C(=O)Nc1ccc(-c2c(-c3ccc(Oc4ccc(Cl)cn4)cc3)c3c(N)ncnc3n2C)cc1` [Example 97], 250 to 1000 nM; to `C=C(C)C(=O)Nc1ccc(-c2c(-c3ccc(C(=O)N4CCCC4)cc3)c3c(N)ncnc3n2C)c(CC)c1` [Example 477], 100 to 250 nM. Turning to `C=C(C)C(=O)Nc1ccc(-c2c(-c3ccc(C(=O)N4CC(F)(F)C4)cc3)c3c(N)ncnc3n2C)cc1` [Example 259], the IC50 fell in the range of 1000 to 100000 nM. Then `C=C(C)C(=O)Nc1ccc(-c2c(-c3ccc(C(=O)N(C)CC4(F)COC4)cc3)c3c(N)ncnc3n2C)c(F)c1` [Example 467], with 100 to 250 nM. Then `C=CC(=O)N1CCc2cc(-c3c(-c4ccc(Oc5cccc(C)n5)cc4)c4c(N)ncnc4n3C)ccc2C1` [Example 20], with 100 to 250 nM; and `C=CC(=O)N[C@H]1CC[C@H](c2c(-c3ccc(Oc4cccc(C)n4)c(OC)c3)c3c(N)ncnc3n2C)CC1` [Example 625], with 250 to 1000 nM. Regarding `C=C(C)C(=O)Nc1ccc(-c2c(-c3ccc(C(=O)NC4CC(F)C4)cc3)c3c(N)ncnc3n2C)cc1` (stereo not drawn) [Example 364], the IC50 is below 100 nM. `C=C(C)C(=O)Nc1ccc(-c2c(-c3ccc(-c4nnn(C)n4)nc3)c3c(N)ncnc3n2C)cc1` [Example 132] yielded an IC50 of 1000 to 100000 nM. Then `C=C(C)C(=O)Nc1ccc(-c2c(-c3ccc(C(=O)N(C)C(CF)CF)cc3)c3c(N)ncnc3n2C)cc1` [Example 412], with below 100 nM.

As to `C=C(C)C(=O)Nc1ccc(-c2c(-c3ccc(C(=O)N4CC(C5CCOC5)C4)cc3)c3c(N)ncnc3n2C)cc1` (stereo not drawn) [Example 261], the IC50 fell in the range of 1000 to 100000 nM.

The molecule `CCC(=O)Nc1ccc(-c2c(-c3ccc(Oc4cccc(C)n4)c(OC)c3)c3c(N)ncnc3n2C)cc1` [Example 66] came in with a half-inhibitory concentration (IC50) of 1000 to 100000 nM. `C=C(C)C(=O)N(C)c1ccc(-c2c(-c3ccc(Oc4cccc(C)n4)cc3)c3c(N)ncnc3n2C)cc1` [Example 414]: the IC50 lay in the range of 100 to 250 nM. Then `C=C(C)C(=O)Nc1ccc(-c2c(C3=CC[C@H](C(=O)NCC(C)(C)OC)CC3)c3c(N)ncnc3n2C)cc1` (single isomer, unassigned) [Example 432], with 1000 to 100000 nM; and `C=C(C)C(=O)Nc1ccc(-c2c(-c3cc(F)c(Oc4cnccn4)c(F)c3)c3c(N)ncnc3n2C)cc1` [Example 118], with 1000 to 100000 nM; and `C=CC(=O)Nc1ccc(-c2c(-c3ccc(Oc4ncc(N)cn4)c(OC)c3)c3c(N)ncnc3n2C)cc1` [Example 87], with below 100 nM. Then `C=C(C)C(=O)Nc1ccc(-c2c(-c3ccc(C(=O)N(C)CC4CCOC4)cc3)c3c(N)ncnc3n2C)cc1` (stereo not drawn) [Example 469], with 250 to 1000 nM; and `C=C(C)C(=O)Nc1ccc(-c2c(-c3ccc4c(c3)CNC4=O)c3c(N)ncnc3n2C)cc1` [Example 250], with 1000 to 100000 nM. Consider `C=C(C)C(=O)Nc1ccc(-c2c(-c3ccc(N)c(OC(F)(F)F)c3)c3c(N)ncnc3n2C)cc1` [Example 177], for which the IC50 lay within 1000 to 100000 nM. As for `C=C(C)C(=O)Nc1ccc(-c2c(C3=CCC(C(=O)NCC(C)(C)OC)CC3)c3c(N)ncnc3n2C)cc1` (stereo not drawn) [Example 394], the IC50 was 250 to 1000 nM. Then `C=C(C)C(=O)Nc1ccc(-c2c(-c3cc(F)c(Oc4ccccn4)c(F)c3)c3c(N)ncnc3n2C)cc1` [Example 107], with 250 to 1000 nM; and `C=C(C)C(=O)Nc1ccc(-c2c(-c3ccc(OCC4CC4)cc3)c3c(N)ncnc3n2C)cc1` [Example 133], with 100 to 250 nM; and `C=C(C)C(=O)Nc1ccc(-c2c(-c3ccc(Oc4cccc(C)n4)cc3)c3c(N)ncnc3n2C2CCOCC2)cc1` [Example 88], with 100 to 250 nM. To `C=C(C)C(=O)Nc1ccc(-c2c(C3=CC[C@H](C(=O)N4CC[C@@H](OC)C4)CC3)c3c(N)ncnc3n2C)cc1` (single isomer, unassigned) [Example 580] belongs 1000 to 100000 nM. `C=C(C)C(=O)Nc1ccc(-c2c(-c3ccc(Oc4cccc(C)c4)cc3)c3c(N)ncnc3n2C)cc1` [Example 29] showed an IC50 of 250 to 1000 nM.

For `C=CC(=O)Nc1ccc(-c2c(C3CCN(C)CC3)c3c(N)ncnc3n2C)cc1` [Example 99], the IC50 was in the range of 1000 to 100000 nM. `C=C(C)C(=O)Nc1ccc(-c2c(-c3ccc(S(C)(=O)=O)cc3C)c3c(N)ncnc3n2C)cc1` [Example 181] had a half-maximal inhibitory concentration (IC50) of 1000 to 100000 nM.

On to `C=C(C)C(=O)Nc1ccc(-c2c(-c3ccc(C(=O)N4CCCC4)nc3)c3c(N)ncnc3n2C)cc1` [Example 422], for which the IC50 was 1000 to 100000 nM. `C=C(C)C(=O)Nc1ccc(-c2c(-c3ccc(C(=O)N4CCCC4)cc3)c3c(N)ncnc3n2C)c([C@@H]2CCCO2)c1` (single isomer, unassigned) [Example 510] yielded an IC50 below 100 nM.

For `C=C(C)C(=O)Nc1ccc(-c2c(-c3ccc(S(=O)(=O)NC4CCCC4)cc3)c3c(N)ncnc3n2C)cc1` [Example 325], the IC50 is 1000 to 100000 nM. Molecule `C=C(C)C(=O)Nc1ccc(-c2c(C3=CC[C@H](C(=O)N4CC[C@@H](F)C4)CC3)c3c(N)ncnc3n2C)cc1` (single isomer, unassigned) [Example 576] had an IC50 of 1000 to 100000 nM.

With `C=C(C)C(=O)Nc1ccc(-c2c(-c3ccc(-n4cc(C)cn4)nc3)c3c(N)ncnc3n2C)cc1` [Example 165], the IC50 was 250 to 1000 nM.

Molecule `Cn1c(-c2ccc(N3CCC=CS3(=O)=O)cc2)c(-c2ccc(C(=O)N3CCCC3)cc2)c2c(N)ncnc21` [Example 544] had an IC50 of 1000 to 100000 nM. For `Cn1c(-c2ccc(C#N)nc2)c(-c2ccc(C(=O)N3CCCC3)cc2)c2c(N)ncnc21` [Example 493], the concentration for half-maximal inhibition (IC50) fell in the range of 1000 to 100000 nM.
